Assay results reported in patent US20250066358A1, “Inhibitors of Menin-MLL Interaction” (Bala Therapeutics, Inc., priority 2021, published 2025).

Legend:
[1] = biological target: T1, recombinant MEN1 protein and fluorescein-labeled MLL4-43 peptide (Homo sapiens, UniProt O00255); experiment: Primary fluorescence polarization assay of MEN1 / MLL4-43 interaction inhibition; assay type: binding; conditions: MEN1 10 nM, MLL4-43 0.5 nM, 1 hour at room temperature
T1 construct: purchased Creativebiomart MEN1-35H
T1 sequence (O00255 1-610): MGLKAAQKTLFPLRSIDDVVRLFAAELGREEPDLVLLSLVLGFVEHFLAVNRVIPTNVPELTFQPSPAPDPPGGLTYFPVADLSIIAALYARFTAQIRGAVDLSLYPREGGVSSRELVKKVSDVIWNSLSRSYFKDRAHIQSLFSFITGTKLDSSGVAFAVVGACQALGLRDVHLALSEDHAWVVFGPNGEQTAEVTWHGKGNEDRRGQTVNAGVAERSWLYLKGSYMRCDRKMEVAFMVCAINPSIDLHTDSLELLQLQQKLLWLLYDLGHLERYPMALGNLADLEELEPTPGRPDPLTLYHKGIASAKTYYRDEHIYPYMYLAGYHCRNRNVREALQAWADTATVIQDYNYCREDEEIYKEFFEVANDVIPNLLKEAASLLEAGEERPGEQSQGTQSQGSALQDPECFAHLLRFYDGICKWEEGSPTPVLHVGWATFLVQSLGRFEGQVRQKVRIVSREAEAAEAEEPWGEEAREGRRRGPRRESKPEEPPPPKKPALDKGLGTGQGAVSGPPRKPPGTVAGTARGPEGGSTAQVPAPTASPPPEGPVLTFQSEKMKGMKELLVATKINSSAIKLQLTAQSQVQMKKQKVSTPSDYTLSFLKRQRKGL
Description: Compound activity was determined using recombinant MEN1 protein (Creativebiomart, Cat #MEN1-35H) and a custom fluorescein-labeled MLL4-43 peptide (Eton Bioscience Inc.). Interaction between MEN1 and MLL4-43 in the presence of compounds was determined by fluorescence polarization assay using a Microplate Reader ClarioStar Plus. The reaction was carried out in assay buffer (50 mM TRIS-HCl PH 7.4-7.6, 50 mM NaCl, 1 mM DTT, 0.1 mg/ml BSA). The compounds were dispensed on a 384 well Diamond Well Plate (Axigen, Cat #P-384-120 SQ-C—S) using the Biomek FX liquid handling system at 100× solutions of compounds in DMSO. 2× MEN1 mix (final concentration of MEN1 10 nM) was prepared in Assay buffer and 10 μl of mixture per well was added into 384w white Reaction plate with NBS(Corning, Cat #4513). 10 μl of Assay buffer w/o MENI was used for negative control. Plates were centrifuged for 1 min at 100 g. Next step the Compounds were added to Reaction plate using Biomek station via following steps: 3 μl of 100× compounds (in DMSO) were mixed thoroughly with 27 μl Assay Buffer, then 2 μl of this mixture was added to Reaction plate with 10 μl of MENI mix. Plates were centrifuged for 1 min at 100 g and incubated for 20 min at room temperature. Next 8 μL of MLL4-43 peptide per well was added to final concentration of MLL 0.5 nM. Plates were incubated for 1 hour at room temperature. Then fluorescence polarization was measured using Microplate Reader.

[2] = tested on: MV4-11; experiment: MV4-11 Cellular Growth Inhibition Assay (CellTiter-Glo); assay type: cell-based; conditions: Homo sapiens, 168 h, MV4-11 cells, 7 days of incubation
Description: (§1) HEK293 (Institute of Cytology Russian Academy of Science), MV4-11 (ATCC, CRL-9591), MOLM-13 (AcceGen, ABC-TC517S) were seeded at a density of 500 cells per well (HEK293) and 2000 cells per well (MV4-11, MOLM-13) in a 384-well clear bottom plate (Greiner Cat #781090) in 45 μl total volume of DMEM (PanEco, Cat #C420, Russia) or RPMI (PanEco, Cat #C330, Russia) with 10% FBS(HyClone Cat #SV30160.03). HEK293 were allowed to adhere overnight at 37° C., 5% CO2. 500× compounds solutions in DMSO (Sigma Cat #D2650) were prepared into Cmpnds plate (Diamond Well Plate, Axigen, Cat #P-384-120 SQ-C—S) and DMSO only control was included. 1 μl of 500× compounds (Cmpnds plate) was added to 49 μl of culture medium into Dilution plate (Diamond Well Plate, Axigen, Cat #P-384-120 SQ-C—S), mixed and then 5 μl of 10× compounds solutions were transferred to cells followed by centrifugation at 100 g for 1 min. Final DMSO concentration was 0.2%. After 3 days of incubation, 10 μl of 1× compounds were added to cells. After 7 days of incubation, 12 μl of CellTiter-Glo (Promega, CAT #G7572) were added to the cells, plate was centrifuged at 100 g for 1 min and luminescence signal was measured using Microplate Reader (CLARIOStar).

[3] = tested on: MOLM-13; experiment: MOLM-13 Cellular Growth Inhibition Assay (CellTiter-Glo); assay type: cell-based; conditions: Homo sapiens, 168 h, MOLM-13 cells, 7 days of incubation
Description: as §1

[4] = HEK293 Cellular Growth Inhibition Assay (CellTiter-Glo); assay type: cell-based; conditions: human, HEK293 cells, 7 days of incubation
Description: as §1

SMILES | EC50 [1] [nM] | CC50 [2] [nM] | CC50 [3] [µM] | CC50 at 7 days [4] [µM]
CCS(=O)(=O)N1Cc2ccc(CN3CCC4(CC3)CN(c3ncnc5ccc(CC(F)(F)F)cc35)C4)cc2C1 [Compound 94, 4-(7-((2-(ethylsulfonyl)isoindolin-5-yl)methyl)-2,7-diazaspiro[3.5]nonan-2-yl)-6-(2,2,2-trifluoroethyl)quinazoline] | 75 to 500 | 2500 to 5000 | 5 to 10 | 5 to 15
FC(F)(F)Cc1ccc2ncnc(N3CC4(CCN(Cc5ccc6cc[nH]c6c5)CC4)C3)c2c1 [Compound 89, 4-(7-((1H-indol-6-yl)methyl)-2,7-diazaspiro[3.5]nonan-2-yl)-6-(2,2,2-trifluoroethyl)quinazoline] | ≤ 75 | ≤ 1000 | 1 to 5 | ≤ 5
CCS(=O)(=O)Nc1cccc(CN2CC3(CCN(c4ncnc5ccc(CC(F)(F)F)cc45)CC3)C2)c1 [Compound 44, N-(3-((7-(6-(2,2,2-trifluoroethyl)quinazolin-4-yl)-2,7-diazaspiro[3.5]nonan-2-yl)methyl)phenyl)ethanesulfonamide] | 500 to 1000 | 1000 to 2500 | 5 to 10 | 5 to 15
O=C1COc2cc(CN3CCC4(CC3)CN(c3ncnc5ccc(CC(F)(F)F)cc35)C4)ccc2N1 [Compound 75, 7-((2-(6-(2,2,2-trifluoroethyl)quinazolin-4-yl)-2,7-diazaspiro[3.5]nonan-7-yl)methyl)-2H-benzo[b][1,4]oxazin-3(4H)-one] | 75 to 500 | 2500 to 5000 | 1 to 5 | 15 to 30

The next lines start with results.

EC50 [1] [nM] | SMILES | CC50 [2] [nM] | CC50 [3] [µM] | CC50 at 7 days [4] [µM]
> 5000 | CCS(=O)(=O)Nc1ccc(CN2CCC3(CC2)CN(c2ncnc4ccc(CC(F)(F)F)cc24)C3)cc1OCC(C)N1CCN(S(C)(=O)=O)CC1 (racemic) [Compound 70, rac-(R)-N-(2-(2-(4-(methylsulfonyl)piperazin-1-yl)propoxy)-4-((2-(6-(2,2,2-trifluoroethyl)quinazolin-4-yl)-2,7-diazaspiro[3.5]nonan-7-yl)methyl)phenyl)ethanesulfonamide] | 2500 to 5000 | 5 to 10 | 15 to 30
≤ 75 | CCS(=O)(=O)Nc1ccc(CN2CCC3(CC2)CN(c2ncnc4ccc(CC(F)(F)F)cc24)C3)cc1 [Compound 7, N-(4-((2-(6-(2,2,2-trifluoroethyl)quinazolin-4-yl)-2,7-diazaspiro[3.5]nonan-7-yl)methyl)phenyl)ethanesulfonamide] | 1000 to 2500 | 1 to 5 | 5 to 15
> 5000 | CCS(=O)(=O)N[C@H]1CC[C@H](CN2CCC(Nc3ncnc4ccc(CC(F)(F)F)cc34)C2)CC1 (mixture of isomers) [Compound 71, N-((1R,4R)-4-(((RS)-3-((6-(2,2,2-trifluoroethyl)quinazolin-4-yl)amino)pyrrolidin-1-yl)methyl)cyclohexyl)ethanesulfonamide] | > 10000 | > 20 | > 50
